This assay concerns the target T1, Vitamin D3 receptor (Homo sapiens, UniProt P11473).
T1 sequence (P11473 whole entry): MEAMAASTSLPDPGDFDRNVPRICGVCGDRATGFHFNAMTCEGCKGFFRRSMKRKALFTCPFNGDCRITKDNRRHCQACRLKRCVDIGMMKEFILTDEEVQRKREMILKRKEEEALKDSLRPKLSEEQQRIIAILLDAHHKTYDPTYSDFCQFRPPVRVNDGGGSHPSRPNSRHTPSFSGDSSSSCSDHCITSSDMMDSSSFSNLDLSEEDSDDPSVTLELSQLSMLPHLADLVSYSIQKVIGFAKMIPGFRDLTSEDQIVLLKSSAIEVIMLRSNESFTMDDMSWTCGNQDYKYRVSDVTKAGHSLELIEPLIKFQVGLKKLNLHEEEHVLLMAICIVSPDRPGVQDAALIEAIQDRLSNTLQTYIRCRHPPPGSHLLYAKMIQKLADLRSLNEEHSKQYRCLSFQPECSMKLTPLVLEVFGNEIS
Description: Displacement of [3H]-1-alpha,25-dihydroxyvitamin D3 from N-terminal GST-tagged human recombinant VDR LBD expressed in Escherichia coli Rosetta2 (DE3) after 16 hrs
A word on the IC50: it is the concentration at which inhibition is half-maximal. A high value points to weaker potency. In the case of `C=C1[C@H](O)CC(=C/C=C2\CCC[C@]3(C)[C@@H]([C@H](C)[C@H](CCCC)CC(C)(C)O)CC[C@@H]23)C[C@H]1O`, 0.12 nM corresponded to half-maximal inhibition (IC50).
As for `C=C1[C@H](O)CC(=C/C=C2\CCC[C@]3(C)[C@@H]([C@H](C)[C@H](CCCC)CCCO)CC[C@@H]23)C[C@H]1O`, the figure is 0.89 nM; as for `C=C1[C@H](O)CC(=C/C=C2\CCC[C@]3(C)[C@@H]([C@H](C)[C@H](CC)CCC(C)(C)O)CC[C@@H]23)C[C@H]1O`, 2.39 nM.
As for `C=C1[C@H](O)CC(=C/C=C2\CCC[C@]3(C)[C@@H]([C@H](C)[C@H](CC)CCCO)CC[C@@H]23)C[C@H]1O`, the figure is 7.16 nM; as for `C=C1[C@H](O)CC(=C/C=C2\CCC[C@]3(C)[C@@H]([C@H](C)[C@H](CCCC)CCC(C)(C)O)CC[C@@H]23)C[C@H]1O`, 0.29 nM.
As to `C=C1[C@H](O)CC(=C/C=C2\CCC[C@]3(C)[C@@H]([C@H](C)[C@@H](CCO)CCCC)CC[C@@H]23)C[C@H]1O`, the midpoint of inhibition, the IC50, lay at 0.26 nM.
In the case of `C=C1[C@H](O)CC(=C/C=C2\CCC[C@]3(C)[C@@H]([C@H](C)[C@H](CC)CCO)CC[C@@H]23)C[C@H]1O` it was 2.87 nM.
In the case of `C=C1[C@H](O)CC(=C/C=C2\CCC[C@]3(C)[C@@H]([C@H](C)[C@H](CC)CC(C)(C)O)CC[C@@H]23)C[C@H]1O` it was 1.55 nM; in that of `C=C1[C@H](O)CC(=C/C=C2\CCC[C@]3(C)[C@@H]([C@H](C)[C@H](CC)CC(O)(CC)CC)CC[C@@H]23)C[C@H]1O`, 1.55 nM; in that of `C=C1[C@H](O)CC(=C/C=C2\CCC[C@]3(C)[C@@H]([C@H](C)[C@H](CCCC)CC(O)(CC)CC)CC[C@@H]23)C[C@H]1O`, 1.79 nM.
